From patent publication US20150315218A1, “SALTS OF PRODRUGS OF PIPERAZINE AND SUBSTITUTED PIPERIDINE ANTIVIRAL AGENTS” (Bristol-Myers Squibb Company, priority 2004, published 2015)
Structures can show the parent of a compound that is named as a salt. Where two headings read alike, the source gives them in different places. Marks after values point to notes of the source that are not given here.

How the values were obtained:
[1] = IV and oral rat PK (MAP) studies A, B, C of phosphate prodrugs and parent studies A1, B1, C1; assay type: in vivo, Sprague-Dawley rats; details: rats; for concentration at 24 h: oral, read-out: Cp @ 24 hr p.o.; for AUC(0-t): AUC 0-24 h (μM * hr)
Method: The rats for oral dosing studies were fasted overnight. […] The dosing solutions of all three prodrugs for both IV and oral administration were prepared in 100% normal saline at 1 mg/mL (dosing solution concentrations were parent compound equivalent). Plasma samples were collected in EDTA vacutainers over 24 hrs, and analyzed by LC/MS/MS for both the prodrugs and parent molecules. Pharmacokinetic analysis was performed on Kinetica™.
Plasma and tissue samples were collected and stored at −20° C. until analysis. […] Rats were fasted overnight in PO studies. […] In the PO studies, rats (n=3) received PO doses of 5 and 100 mg/kg.
Male Sprague-Dawley rats (300-350 g, Hilltop Lab Animals, Inc., Scottdale, Pa.) with cannulas implanted in the jugular vein and/or bile duct were used. The rats were fasted overnight in the PO pharmacokinetic studies. Blood samples of 0.3 ml were collected from the jugular vein in EDTA-containing microtainer tubes (Becton Dickinson, Franklin Lakes, N.J.), and centrifuged to separate plasma.

[2] = Stability of prodrug in fresh EDTA blood (dog)
Method: The stability of Iab was studied in fresh blood and serum from rat, dog, monkey and human (n=2). The blood was collected in vacutainers containing K2EDTA (Becton Dickinson, Franklin Lakes, N.J.). The serum was collected in vacutainers containing no anticoagulant. Iab was incubated at a starting concentration of approximately 10 μM for 60-90 min at 37° C. Serial samples were taken at the pre-determined times. Aliquots of blood samples (200 μL) were first mixed with 100 μL of water followed by 400 μL of acetonitrile. The serum samples (50 μL) were added into microtainers containing K2EDTA (Becton Dickinson, Franklin Lakes, N.J.) followed by the addition of 100 μL of acetonitrile. The supernatant was analyzed for both Iab and IVa by LC/MS/MS. The stability of Ibb was studied in fresh blood and serum from rat, dog, monkey and human (n=2). The blood was collected in vacutainers containing K2EDTA (Becton Dickinson, Franklin Lakes, N.J.). The serum was collected in vacutainers containing no anticoagulant. Ibb was incubated at a starting concentration of approximately 15 μM for 90 min at 37° C. Serial samples were taken at the pre-determined times. Aliquots of blood samples (200 μL) were first mixed with 100 μL of water followed by 400 μL of acetonitrile. The serum samples (50 μL) were added into microtainers containing K2EDTA (Becton Dickinson, Franklin Lakes, N.J.) followed by the addition of 100 μL of acetonitrile. […] The stability of Icb was studied in fresh blood and serum from rat, dog, monkey and human (n=2). The blood was collected in vacutainers containing K2EDTA (Becton Dickinson, Franklin Lakes, N.J.). The serum was collected in vacutainers containing no anticoagulant. Icb was incubated at a starting concentration of approximately 10 μM for 90 min at 37° C. Serial samples were taken at the pre-determined times. Aliquots of blood samples (200 μL) were first mixed with 100 μL of water followed by 400 μL of acetonitrile. The serum samples (50 μL) were added into microtainers containing K2EDTA (Becton Dickinson, Franklin Lakes, N.J.) followed by the addition of 100 μL of acetonitrile.

[3] = IV and PO pharmacokinetic studies of prodrug salts (Iab, Ibb, Icb) in the rat, with historical parent data; assay type: in vivo, Sprague-Dawley rats; details: for Vd: read-out: Vdss (L/kg), IV; for Tmax: read-out: Tmax (hr), PO; for Cmax: read-out: Cmax (μM), PO
Method: (§1) All blood samples (0.3 mL) were colleted in microtainers containing K2EDTA (Becton Dickinson, Franklin Lakes, N.J.) and placed on chipped ice. After centrifugation, plasma was separated and stored at −20° C. until analysis. The mono-lysine salt of Iab (Form 3, Lot 1) was used for the pharmacokinetic studies. The dosing solutions of Iab were prepared in either sterile water (for IV administration in dogs and monkeys) or distilled water (for all other dose administration).
Male Sprague-Dawley rats (300-350 g, Hilltop Lab Animals, Inc., Scottsdale, Pa.) with cannulas implanted in the jugular vein were used. The rats were fasted overnight in the PO pharmacokinetic studies. Blood samples were collected from the jugular vein.
In the IV study, Iab was delivered at 1.4 mg/kg (free acid, or 1.1 mg/kg of IVa equivalent) as a bolus over 0.5 min (n=3).
In the PO study, Iab was administered at 7.9 mg/kg (free acid, or 6.3 mg/kg of IVa equivalent) by oral gavage (n=3). The concentration of the dosing solution was 4.0 mg/mL, and the dosing volume was 2 mL/kg.
The pharmacokinetic parameters of Iab and IVa were calculated by Non-Compartmental Analysis using the […]™ software program (version 4.0.2, InnaPhase Co., Philadelphia, Pa.). The Cmax and Tmax values were recorded directly from experimental observations. The AUC0-n and AUCtot values were calculated using the mixed log-linear trapezoidal summations. The total body clearance (Cl), mean residence time (MRT), and the steady state volume of distribution (Vss) were also calculated after intravenous administration. The absolute oral bioavailability (expressed as %) was estimated by taking the ratio of dose-normalized AUC values after oral doses to those after intravenous doses.
as §1, with “Ibb” for “Iab”, “3)” for “3, Lot 1)”
(§2) The Cmax and Tmax values were recorded directly from experimental observations. The AUC0-n and AUCtot values were calculated using the mixed log-linear trapezoidal summations. The total body clearance (Cl), mean residence time (MRT), and the steady state volume of distribution (Vss) were also calculated after intravenous administration. The absolute oral bioavailability (expressed as %) was estimated by taking the ratio of dose-normalized AUC values after oral doses to those after intravenous doses.
In the IV study, Icb was delivered at 1.4 mg/kg (free acid, or 1.1 mg/kg of IVe equivalent) as a bolus over 0.5 min (n=3).
In the PO study, Icb was administered at 6.9 mg/kg (free acid, or 5.6 mg/kg of IVe equivalent) by oral gavage (n=3).
as §2

[4] = Stability (hydrolysis) of prodrug in fresh serum (rat); details: Rat Serum
monkey hepatocytes = assay: Hydrolysis of prodrug in hepatocytes (monkey); assay type: in vitro ADME
Method: (§3) The in vitro intrinsic clearance of Ibb in hepatocytes (Clint) was calculated as follows: Clint(μL/min/million cells)=Rate/CE where Rate is the rate of metabolism in hepatocytes (pmol/min/million cells), and CE is the concentration of Ibb in the incubation. The in vitro intrinsic clearance of Icb in hepatocytes (Clint) was calculated as follows: Clint(μL/min/million cells)=Rate/CE where Rate is the rate of metabolism in hepatocytes (pmol/min/million cells), and CE is the concentration of Icb in the incubation.

human hepatocytes = assay: Hydrolysis of prodrug in hepatocytes (human); assay type: in vitro ADME
Method: as §3

[5] = male, Sprague-Dawley, rat, plasma, po, 5 mg/kg, after PO prodrug dosing equivalent to 5 mpk of parent, analyte = label
[6] = male, Sprague-Dawley, rat, plasma, po, 5 mg/kg, historic, after PO dosing of parent 5 mpk
[7] = parent AUC after prodrug dosing vs after parent dosing
[8] = male, Sprague-Dawley, plasma, after IV prodrug (~1 mg/kg parent equivalent), analyte = label, read-out: AUCtot (μM·hr), IV
[9] = male, Sprague-Dawley, plasma, after IV prodrug, analyte = label, read-out: t1/2 (hr), IV (converted)

SMILES: COc1ncc(OC)c2c(C(=O)C(=O)N3CCN(C(=O)c4ccccc4)CC3)c[nH]c12 [IVa, N-(benzoyl)-N′-[(4,7-dimethoxy-6-azaindol-3-yl)-oxoacetyl]piperazine]
- Vd ([1]; male, Sprague-Dawley, rat, plasma, 1 mg/kg, historic, parent IV 1 mpk, read-out: Vss i.v.): 1.4 ± 0.4 L/kg
- half-life ([1]; male, Sprague-Dawley, rat, plasma, iv, 1 mg/kg, after IV prodrug dosing equivalent to 1 mpk of parent, analyte = label, read-out: T1/2 i.v. (converted)): 2.8 ± 1.5 h
- half-life ([1]; male, Sprague-Dawley, rat, plasma, iv, 1 mg/kg, historic, parent IV 1 mpk, read-out: T1/2 i.v. (converted)): 4 ± 2.6 h
- concentration at 24 h ([1]; male, Sprague-Dawley, rat, plasma, 5 mg/kg, after PO prodrug dosing equivalent to 5 mpk of parent, analyte = label): 35.2 nM
- concentration at 24 h ([1]; male, Sprague-Dawley, rat, plasma, 5 mg/kg, historic, after PO dosing of parent 5 mpk): 9.2 nM
- AUC(0-t) [1, 5]: 5.9 ± 1 µM·h
- AUC(0-t) [1, 6]: 14.9 ± 6.2 µM·h
- Tmax ([1]; male, Sprague-Dawley, rat, plasma, po, 5 mg/kg, after PO prodrug dosing equivalent to 5 mpk of parent): 1.7 h
- Cmax [1, 5]: 1400 ± 600 nM
- half-life ([1]; male, Sprague-Dawley, rat, plasma, po, 5 mg/kg, after PO prodrug dosing equivalent to 5 mpk of parent, read-out: T1/2 p.o. (converted)): 3.3 ± 2.2 h
- Cmax [1, 6]: 4500 ± 1500 nM
- Tmax [1, 6]: 2 h
- half-life ([1]; male, Sprague-Dawley, rat, plasma, po, 5 mg/kg, historic, after PO dosing of parent 5 mpk, read-out: T1/2 p.o. (converted)): 1.9 ± 0.8 h
- CL i.v. ([1]; historic, parent IV 1 mpk): 13 ± 4.6 mL/min/kg
- AUC0 tot ratio after IV administration* [1, 7]: 0.534
- AUCtot ratio after PO administration** [1, 7]: 0.39
- % IVa Formed (of starting concentration of Iab) ([2]; Dog A EDTA blood (Table 15), 0 min): 0.30%
- % IVa Formed (of starting concentration of Iab) ([2]; Dog A EDTA blood (Table 15), 20 min): 2.4%
- % IVa Formed (of starting concentration of Iab) ([2]; Dog A EDTA blood (Table 15), 40 min): 4.1%
- % IVa Formed (of starting concentration of Iab) ([2]; Dog A EDTA blood (Table 15), 60 min): 6.2%
- % IVa Formed (of starting concentration of Iab) ([2]; Dog A EDTA blood (repeat), 0 min): 0.63%
- % IVa Formed (of starting concentration of Iab) ([2]; Dog A EDTA blood (repeat), 15 min): 2.3%
- % IVa Formed (of starting concentration of Iab) ([2]; Dog A EDTA blood (repeat), 30 min): 3.4%
- % IVa Formed (of starting concentration of Iab) ([2]; Dog A EDTA blood (repeat), 45 min): 4.8%
- % IVa Formed (of starting concentration of Iab) ([2]; Dog A EDTA blood (repeat), 60 min): 6.1%
- % IVa Formed (of starting concentration of Iab) ([2]; Dog B EDTA blood, 0 min): 0.68%
- % IVa Formed (of starting concentration of Iab) ([2]; Dog B EDTA blood, 15 min): 2.0%
- % IVa Formed (of starting concentration of Iab) ([2]; Dog B EDTA blood, 30 min): 3.5%
- % IVa Formed (of starting concentration of Iab) ([2]; Dog B EDTA blood, 45 min): 4.5%
- % IVa Formed (of starting concentration of Iab) ([2]; Dog B EDTA blood, 60 min): 5.8%
- AUC ([3]; Sprague-Dawley, plasma, historical parent, IV 1 mg/kg, read-out: AUCtot (μM·hr), IV): 3.3 ± 1.1 µM·h
- MRT ([3]; Sprague-Dawley, plasma, historical parent, IV 1 mg/kg, read-out: MRT (hr), IV): 2.2 ± 1.5 h
- Vd ([3]; Sprague-Dawley, plasma, historical parent, IV 1 mg/kg): 1.5 ± 0.25 L/kg
- half-life ([3]; Sprague-Dawley, plasma, historical parent, IV 1 mg/kg, read-out: t1/2 (hr), IV (converted)): 2.4 ± 0.32 h
- Tmax ([3]; Sprague-Dawley, plasma, historical parent, PO 5 mg/kg): 2 h
- half-life ([3]; Sprague-Dawley, plasma, historical parent, PO 5 mg/kg, read-out: t1/2 (hr), PO (converted)): 1.7 ± 0.92 h
- CLtot (mL/min/kg), IV ([3]; historical parent, IV 1 mg/kg): 13 ± 4.0 mL/min/kg
- AUCtot (μM·hr), PO ([3]; historical parent, PO 5 mg/kg): 15 ± 6.3 µM·h
- Bioavailability (%) ([3]; historical parent, PO 5 mg/kg): 90%
- Cmax ([3]; historical parent, PO 5 mg/kg): 4.5 ± 1.5 µM
- AUC ([3]; male, Sprague-Dawley, plasma, 7.9 mg/kg, after oral prodrug, analyte = label, ND = not detected (<5 nM), read-out: AUCtot (μM·hr), PO): 13 ± 1.4 µM·h
- Cmax ([3]; male, Sprague-Dawley, plasma, 7.9 mg/kg, after oral prodrug, analyte = label, ND = not detected (<5 nM)): 3.9 ± 0.98 µM
- half-life ([3]; male, Sprague-Dawley, plasma, 7.9 mg/kg, parent after oral prodrug, read-out: t1/2 (hr), PO (converted)): 1.5 ± 0.24 h
- AUC [3, 8]: 5.4 ± 0.93 µM·h
- half-life [3, 9]: 4.4 ± 1.9 h
- bioavailability ([3]; male, Sprague-Dawley, plasma, oral prodrug, calculated from historical IV data of parent, read-out: Bioavailability (%) of parent from prodrug): 62%
- Tmax ([3]; male, Sprague-Dawley, plasma, parent after oral prodrug (~5-6 mg/kg parent equivalent)): 0.83 h
- PO AUC Ratio of parent ([3]; oral prodrug vs historical parent): 0.69*
- bioavailability ([3]; plasma, po, range over rats, dogs and monkeys, read-out: oral bioavailabilities of parent after administration of prodrug): 62 to 94%
- Iab / IVa Formed ([4]; 37°C, 0 min): 0.25 µM
- Iab / IVa Formed ([4]; 15 min): 1.1 µM
- Iab / IVa Formed ([4]; 30 min): 1.8 µM
- Iab / IVa Formed ([4]; 45 min): 2.8 µM
- Iab / IVa Formed ([4]; 60 min): 3.7 µM
- Iab / IVa Formed ([4]; 90 min): 5.4 µM

SMILES: COc1cnc(OC)c2c1c(C(=O)C(=O)N1CCN(C(=O)c3ccccc3)CC1)cn2COP(=O)(O)O [Iab, {3-[(4-benzoylpiperazin-1-yl)(oxo)acetyl]-4,7-dimethoxy-1H-pyrrolo[2,3-c]pyridin-1-yl}methyl dihydrogen phosphate, L-lysine salt (1:1)]
- hydrolysis in the presence of hepatocytes (monkey hepatocytes; monkey hepatocytes, qualitative): hydrolyzed
- hydrolysis in the presence of hepatocytes (human hepatocytes; human hepatocytes, qualitative): hydrolyzed
- conversion of prodrug to parent in blood containing EDTA ([2]; dog blood, 37°C, 60 min (Iab) or 90 min (Ibb, Icb)): approximately 6%
- AUC [3, 8]: 3.3 ± 1 µM·h
- half-life [3, 9]: 0.16 h
- clearance ([3]; male, Sprague-Dawley, plasma, prodrug after IV administration, read-out: CLtot (mL/min/kg), IV): 14 mL/min/kg
- Vd ([3]; male, Sprague-Dawley, plasma, prodrug after IV administration): 0.12 L/kg
- Iab / IVa Formed ([4]; 37°C, 0 min): 6.8 µM
- Iab / IVa Formed ([4]; 15 min): 5.8 µM
- Iab / IVa Formed ([4]; 30 min): 5.4 µM
- Iab / IVa Formed ([4]; 45 min): 4.9 µM
- Iab / IVa Formed ([4]; 60 min): 4.3 µM
- Iab / IVa Formed ([4]; 90 min): 3.3 µM

SMILES: COc1cnc(-n2cnc(C)n2)c2c1c(C(=O)C(=O)N1CCN(C(=O)c3ccccc3)CC1)cn2COP(=O)(O)O [Icb, [3-[(4-benzoylpiperazin-1-yl)(oxo)acetyl]-4-methoxy-7-(3-methyl-1H-1,2,4-triazol-1-yl)-1H-pyrrolo[2,3-c]pyridin-1-yl]methyl dihydrogen phosphate, 2-amino-2-(hydroxymethyl)propane-1,3-diol salt (1:1)]
- hydrolysis in the presence of hepatocytes (monkey hepatocytes): No turnover was observed
- hydrolysis in the presence of hepatocytes (human hepatocytes): hydrolyzed
- T1/2 ([3]; male, Sprague-Dawley, in vivo, iv, […]): 5.04 ± 0.72 min
